Consider two compounds from PMC3260417 (Bioorganic Chemistry, 2011).

The target of experiment [1] is DAH7PS^Ap (DAHPS^Ap; 3-deoxy-D-arabino-heptulosonate 7-phosphate synthase) (Aeropyrum pernix, UniProt Q9YEJ7). Briefly: initial rates, discontinuous periodate-thiobarbituric acid. It counts as biochemical. Particulars: read-out: apparent Km; 3 mM PEP (saturating), pH 7.0, 60 °C; enzyme as isolated (Zn).
The target of experiment [2] is 3-deoxy-D-arabino-heptulosonate 7-phosphate synthase from Aeropyrum pernix (Aeropyrum pernix). Description: SEC. For orientation: In gel filtration, larger molecules generally elute earlier.

As usually defined, the Km is the concentration of substrate that gives half-maximal velocity. In the case of `O=C[C@H](O)[C@H](O)COP(=O)(O)O` [E4P], in experiment [1], the Michaelis-Menten constant (Km) is 280 ± 20 µM.
In general, stoichiometry N refers to the number of molecules, sites or subunits per partner or assembly. In turn, “3-deoxy-D-arabino-heptulosonate 7-phosphate synthase from Aeropyrum pernix (enzyme)” showed a stoichiometry N in experiment [2] of 2.
